# Test results: patent US20260256792A1, “TREATMENT OF CHRONIC SPONTANEOUS URTICARIA BY ADMINISTERING (R)-2-[3-[4-AMINO-3-(2-FLUORO-4-PHENOXY-PHENYL)PYRAZOLO[3,4-D]PYRIMIDIN-1-YL]PIPERIDINE-1-CARBONYL]-4-METHYL-4-[4-(OXETAN-3-YL)PIPERAZIN-1-YL]PENT-2-ENENITRILE” (priority 2023, published 2026)
# Tested on: moderate-to-severe chronic spontaneous urticaria (CSU)
# Assay: Phase 2 CSU study: urticaria activity score over 7 days (UAS7)
# Type: in vivo, human
# Set-up: key to UAS7 Median / UAS7 Change from baseline Median / UAS7 change from baseline, Q1 / UAS7 change from baseline, Q3 / UAS7 change from baseline, Max / UAS7 Change from baseline LS Mean (SE): UAS7 points; daily UAS score ranges 0–6 points/day, over 7 days
# Settings: for RRD (%) for rilzabrutinib vs. placebo, UAS7 = 0 / RRD (%) for rilzabrutinib vs. placebo, UAS7 ≤6 / Responder n (%), UAS7 = 0 / Responder n (%), UAS7 ≤6 / Imputed non-responder n (%), UAS7 = 0 / Imputed non-responder n (%), UAS7 ≤6 / Non-responder n (%), UAS7 = 0 / Non-responder n (%), UAS7 ≤6 / OR for rilzabrutinib vs. placebo, UAS7 = 0 / OR for rilzabrutinib vs. placebo, UAS7 ≤6: Omalizumab-naïve, 400 mg TID; for Non-responder, UAS7 reduction from baseline of 10 points or more / OR for rilzabrutinib vs. placebo, UAS7 reduction of 10 points or more / RRD (%) for rilzabrutinib vs. placebo, UAS7 reduction of 10 points or more / Responder, UAS7 reduction from baseline of 10 points or more / UAS7 Change from baseline Mean (SD) / UAS7 Change from baseline Median / UAS7 Mean (SD) / UAS7 Median / UAS7 Percent change from baseline Mean (SD) / UAS7 Percent change from baseline Median: Week 1
# From the text: The study comprises a 12 week, randomized, double-blind, placebo-controlled, multi-center, dose-ranging efficacy and safety phase, followed by a 40 week open label extension (OLE) phase (see FIG. 1). The study consists of three phases and an optional OLE phase. […] Clinically, CSU is characterized by the spontaneous and recurrent appearance of pruritic hives. The proposed primary endpoints were the UAS7 at Week 12 in EU and EU reference countries and the ISS7 in the US. Regardless of where a participant was from, all assessments were the same. The UAS7 score is a composite score containing both the HSS7 and the ISS7. This allowed a global assessment of the two key components of urticaria: hives and itch. […] The UAS is a validated PRO measure. […] The daily UAS scores range from 0 to 6 point/day. […] Patients were to complete the UAS using the e-diary. […] The following secondary endpoints were to be analyzed using the same approach as for the primary endpoint: • Change from baseline in UAS7 at Week 4 • Change from baseline in UAS7 at Week 12 (for US and US reference countries) • Change from baseline in ISS7 at Week 12 (except US and US reference countries) • Change from baseline in HSS7 at Week 12 The following responder secondary endpoints were to be analyzed using the Cochran-Mantel-Haenszel test adjusted by region: • Proportion of participants with UAS7<6 at Week 12 • Proportion of participants with UAS7=0 at Week 12 Participants who received selected prohibited medications and/or rescue medications were to be considered as non-responders for time points after the medication usage. For other participants, all available data including those collected during the off-treatment period were to be used to determine the responder/non-responder status. Missing data were to be considered as non-responders.
# [1] = 400 mg BID, Prior Omalizumab Use
# [2] = 400 mg BID, omalizumab-naive participants
# [3] = 400 mg QPM, Prior Omalizumab Use
smiles,measurement,setting,value
"CC(C)(C=C(C#N)C(=O)N1CCC[C@@H](n2nc(-c3ccc(Oc4ccccc4)cc3F)c3c(N)ncnc32)C1)N1CCN(C2COC2)CC1 [rilzabrutinib, (R)-2-[3-[4-amino-3-(2-fluoro-4-phenoxy-phenyl)pyrazolo[3,4-d]pyrimidin-1-yl]piperidine-1-carbonyl]-4-methyl-4-[4-(oxetan-3-yl)piperazin-1-yl]pent-2-enenitrile]","RRD (%) for rilzabrutinib vs. placebo, UAS7 = 0",Week 9,−0.9 %
same,"RRD (%) for rilzabrutinib vs. placebo, UAS7 ≤6",Week 9,16.7 %
same,"Responder n (%), UAS7 = 0",Week 9,3 (8.6) n (%)
same,"Responder n (%), UAS7 ≤6",Week 9,11 (31.4) n (%)
same,"Imputed non-responder n (%), UAS7 = 0",Week 10,5 (14.3) n (%)
same,"Imputed non-responder n (%), UAS7 ≤6",Week 10,5 (14.3) n (%)
same,"Non-responder n (%), UAS7 = 0",Week 10,31 (88.6) n (%)
same,"Non-responder n (%), UAS7 ≤6",Week 10,25 (71.4) n (%)
same,"OR for rilzabrutinib vs. placebo, UAS7 = 0",Week 10,0.819
same,"OR for rilzabrutinib vs. placebo, UAS7 ≤6",Week 10,2.241
same,"RRD (%) for rilzabrutinib vs. placebo, UAS7 = 0",Week 10,−1.7 %
same,"RRD (%) for rilzabrutinib vs. placebo, UAS7 ≤6",Week 10,12.1 %
same,"Responder n (%), UAS7 = 0",Week 10,4 (11.4) n (%)
same,"Responder n (%), UAS7 ≤6",Week 10,10 (28.6) n (%)
same,"Imputed non-responder n (%), UAS7 = 0",Week 11,4 (11.4) n (%)
same,"Imputed non-responder n (%), UAS7 ≤6",Week 11,4 (11.4) n (%)
same,"Non-responder n (%), UAS7 = 0",Week 11,31 (88.6) n (%)
same,"Non-responder n (%), UAS7 ≤6",Week 11,24 (68.6) n (%)
same,"OR for rilzabrutinib vs. placebo, UAS7 = 0",Week 11,1.846
same,"OR for rilzabrutinib vs. placebo, UAS7 ≤6",Week 11,1.971
same,"RRD (%) for rilzabrutinib vs. placebo, UAS7 = 0",Week 11,4.3 %
same,"RRD (%) for rilzabrutinib vs. placebo, UAS7 ≤6",Week 11,11.2 %
same,"Responder n (%), UAS7 = 0",Week 11,4 (11.4) n (%)
same,"Responder n (%), UAS7 ≤6",Week 11,11 (31.4) n (%)
same,"Imputed non-responder n (%), UAS7 = 0",Week 12,8 (22.9) n (%)
same,"Imputed non-responder n (%), UAS7 ≤6",Week 12,8 (22.9) n (%)
same,"Non-responder n (%), UAS7 = 0",Week 12,28 (80.0) n (%)
same,"Non-responder n (%), UAS7 ≤6",Week 12,23 (65.7) n (%)
same,"OR for rilzabrutinib vs. placebo, UAS7 = 0",Week 12,1.800
same,"OR for rilzabrutinib vs. placebo, UAS7 ≤6",Week 12,3.980
same,"RRD (%) for rilzabrutinib vs. placebo, UAS7 = 0",Week 12,6.9 %
same,"RRD (%) for rilzabrutinib vs. placebo, UAS7 ≤6",Week 12,20.3 %
same,"Responder n (%), UAS7 = 0",Week 12,7 (20.0) n (%)
same,"Responder n (%), UAS7 ≤6",Week 12,12 (34.3) n (%)
same,"Non-responder, UAS7 reduction from baseline of 10 points or more","400 mg BID, ITT population",23 (56.1) n (%)
same,"OR for rilzabrutinib vs. placebo, UAS7 reduction of 10 points or more","400 mg BID, ITT population",2.607
same,"RRD (%) for rilzabrutinib vs. placebo, UAS7 reduction of 10 points or more","400 mg BID, ITT population",20.0 %
same,"Responder, UAS7 reduction from baseline of 10 points or more","400 mg BID, ITT population",18 (43.9) n (%)
same,UAS7 Change from baseline Mean (SD),"400 mg BID, Omalizumab-Naïve",−9.96 (8.81)
same,UAS7 Change from baseline Median,"400 mg BID, Omalizumab-Naïve",−9.00
same,UAS7 Mean (SD),"400 mg BID, Omalizumab-Naïve",19.77 (11.32)
same,UAS7 Median,"400 mg BID, Omalizumab-Naïve",21.00
same,UAS7 Percent change from baseline Mean (SD),"400 mg BID, Omalizumab-Naïve",−35.41 (33.69) %
same,UAS7 Percent change from baseline Median,"400 mg BID, Omalizumab-Naïve",−26.19%
same,UAS7 Change from baseline Mean (SD),[1],−11.83 (12.14)
same,UAS7 Change from baseline Median,[1],−7.50
same,UAS7 Median,[1],23.50
same,UAS7 Percent change from baseline Mean (SD),[1],−35.59 (37.55) %
same,UAS7 Percent change from baseline Median,[1],−20.53%
same,"Non-responder, UAS7 reduction from baseline of 10 points or more",[2],19 (54.3) n (%)
same,"OR for rilzabrutinib vs. placebo, UAS7 reduction of 10 points or more",[2],2.862
same,"RRD (%) for rilzabrutinib vs. placebo, UAS7 reduction of 10 points or more",[2],22.3 %
same,"Responder, UAS7 reduction from baseline of 10 points or more",[2],16 (45.7) n (%)
same,"Non-responder, UAS7 reduction from baseline of 10 points or more","400 mg QPM, ITT population",26 (68.4) n (%)
same,"OR for rilzabrutinib vs. placebo, UAS7 reduction of 10 points or more","400 mg QPM, ITT population",1.672
same,"Responder, UAS7 reduction from baseline of 10 points or more","400 mg QPM, ITT population",12 (31.6) n (%)
same,UAS7 Change from baseline Mean (SD),"400 mg QPM, Omalizumab-Naïve",−7.30 (9.14)
same,UAS7 Change from baseline Median,"400 mg QPM, Omalizumab-Naïve",−6.00
same,UAS7 Mean (SD),"400 mg QPM, Omalizumab-Naïve",23.81 (8.78)
same,UAS7 Median,"400 mg QPM, Omalizumab-Naïve",25.00
same,UAS7 Percent change from baseline Mean (SD),"400 mg QPM, Omalizumab-Naïve",−21.72 (26.65) %
same,UAS7 Percent change from baseline Median,"400 mg QPM, Omalizumab-Naïve",−17.95%
same,UAS7 Change from baseline Mean (SD),[3],−16.00 (NC)
same,UAS7 Change from baseline Median,[3],−16.00
same,UAS7 Mean (SD),[3],25.00 (NC)
same,UAS7 Median,[3],25.00
